Results reported in ChEMBL document CHEMBL3861978, “Dinoflagellate-Related Amphidinolides from the Brazilian Octocoral Stragulum bicolor” (J Nat Prod, 2016).

Experiment: Cytotoxicity against human HCT116 cells measured after 72 hrs by MTT assay
Assay type: functional, cell-based
Conditions: HCT-116, 72 h

SMILES | IC50 [µM]
C=C1/C=C(\C)[C@](C)(O)C[C@H](O)CC(=O)[C@H](O)[C@@H](O)[C@H](C)C[C@H](C)OC(=O)/C(C)=C/CC/C=C/C(O)C(O)C[C@H](C)C1 (some centres not stated) | 9.8
C=C1/C=C(\C)[C@@H](C)[C@@H](O)CC(=O)[C@@H](C)CC(=O)C[C@H]2CC[C@@H](O2)[C@@H](/C=C/C=C(\C)[C@@H](O)C(=C)CCC)OC(=O)C[C@@H]2O[C@H](C[C@H]2C)[C@H](O)C1 | 10.3
